Assay results published in the supplement of paper PMC10307832.

Tests used:
Assay in all cases: relative viability (nuclei count vs DMSO), 5 days (fraction); higher = more cells survive
[1] = compound: O=C(CCCCCCNC(=O)c1cnc(N(c2ccccc2)c2ccccc2)nc1)NO [Ricolinostat] + CC(=O)c1c(C)c2cnc(Nc3ccc(N4CCNCC4)cn3)nc2n(C2CCCC2)c1=O [Palbociclib] (partner 0.5 µM)
How it was run: (§1)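 Relative viability divides the nuclei count in treated wells by that in vehicle wells. Lung cancer cell lines were seeded in 1536-well plates, dosed by pin tool the next day, and fixed and stained after 5 days in one step with final 0.05% Triton X-100, 1% formaldehyde and 1 ug/ml Hoechst. Dosing was a single drug or a fixed anchor-drug dose plus five library-drug doses (not always all listed) in √10 steps, and values are medians of duplicate plates imaged at 4×.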

[2] = compound: O=C(CCCCCCNC(=O)c1cnc(N(c2ccccc2)c2ccccc2)nc1)NO [Ricolinostat] + CC(=O)Nc1cccc(-n2c(=O)n(C3CC3)c(=O)c3c(Nc4ccc(I)cc4F)n(C)c(=O)c(C)c32)c1 [Trametinib] (partner 0.02 µM)
How it was run: as §1

[3] = compound: C1=CC=C(C(=C1)C2=CC=C(C=C2)C3=CSC4=C3C(=C(C(=O)N4)C#N)O)O + CS(=O)(=O)CCNCc1ccc(-c2ccc3ncnc(Nc4ccc(OCc5cccc(F)c5)c(Cl)c4)c3c2)o1 [Lapatinib] (partner 2 µM)
How it was run: as §1

[4] = compound: O=C(CCCCCCNC(=O)c1cnc(N(c2ccccc2)c2ccccc2)nc1)NO [Ricolinostat] + C[C@@H](Oc1cc(-c2cnn(C3CCNCC3)c2)cnc1N)c1c(Cl)ccc(F)c1Cl [Crizotinib] (partner 1 µM)
How it was run: as §1

Cell Line | relative viability ([1]; first compound 0.08 µM) | relative viability ([1]; first compound 0.253 µM) | relative viability ([1]; first compound 0.8 µM) | relative viability ([1]; first compound 2.53 µM) | relative viability ([2]; first compound 0.08 µM) | relative viability ([2]; first compound 0.253 µM) | relative viability ([2]; first compound 0.8 µM) | relative viability ([2]; first compound 2.53 µM) | relative viability ([3]; first compound 0.08 µM) | relative viability ([3]; first compound 0.253 µM) | relative viability ([3]; first compound 0.8 µM) | relative viability ([3]; first compound 2.53 µM) | relative viability ([3]; first compound 8 µM) | relative viability ([4]; first compound 0.08 µM) | relative viability ([4]; first compound 0.253 µM) | relative viability ([4]; first compound 0.8 µM) | relative viability ([4]; first compound 2.53 µM)
NCI-H1915 | 0.488 | 0.521 | 0.474 | 0.419 | 0.261 | 0.31 | 0.309 | 0.3 | 0.835 | 1.04 | 0.924 | 1.15 | 0.882 | 0.853 | 0.868 | 0.882 | 0.809
NCI-H1944 | 0.332 | 0.307 | 0.309 | 0.297 | 0.46 | 0.469 | 0.442 | 0.407 | 0.69 | 0.853 | 0.883 | 0.67 | 0.788 | 1.02 | 0.95 | 0.878 | 0.58
NCI-H1975 | 0.709 | 0.607 | 0.607 | 0.471 | 0.374 | 0.368 | 0.33 | 0.326 | 0.756 | 1.01 | 0.832 | 0.895 | 0.766 | 1.01 | 0.954 |  | 0.884
NCI-H1993 | 0.614 | 0.67 | 0.664 | 0.514 | 0.5 | 0.583 | 0.564 | 0.665 | 0.889 | 0.814 | 0.764 | 0.869 | 0.782 | 0.798 | 0.854 | 0.923 | 0.964
NCI-H2009 | 0.164 | 0.202 | 0.222 | 0.296 | 0.158 | 0.262 | 0.294 | 0.353 | 1.04 | 0.933 | 0.795 | 0.886 | 0.724 | 1.02 | 1.04 | 0.938 | 0.888
NCI-H2023 | 0.415 | 0.328 | 0.42 | 0.397 | 0.51 | 0.637 | 0.558 | 0.536 | 0.925 | 0.94 | 0.579 | 0.729 | 0.88 | 0.567 | 0.715 | 0.605 | 0.508
NCI-H2085 |  | 0.461 | 0.426 | 0.478 |  | 0.491 | 0.516 | 0.513 | 0.608 | 0.841 | 0.677 | 0.685 | 0.671 |  | 0.81 | 0.819 | 0.848
NCI-H2087 | 0.263 | 0.165 | 0.178 | 0.0962 | 0.211 | 0.188 | 0.173 | 0.233 | 1.05 | 1.11 | 1.01 | 1.19 | 1.04 | 0.891 | 0.791 | 0.709 | 0.688
NCI-H2126 | 0.347 | 0.347 | 0.353 | 0.363 | 0.531 | 0.548 | 0.564 | 0.52 | 0.737 | 0.748 | 0.728 | 0.766 | 0.834 | 0.862 | 0.945 | 1.06 | 1.01
NCI-H2170 | 0.388 | 0.405 | 0.385 | 0.354 | 0.921 | 0.879 | 0.985 | 0.973 | 0.267 | 0.276 | 0.278 | 0.279 | 0.286 | 1.16 | 1.17 | 1.16 | 1.23
NCI-H2228 | 0.874 | 0.895 | 0.9 | 0.504 | 0.642 | 0.534 | 0.482 | 0.45 | 0.701 | 1.33 | 0.814 | 0.998 | 1.1 | 0.408 | 0.475 | 0.546 | 0.549
NCI-H2347 | 0.487 | 0.371 | 0.294 | 0.408 | 0.298 | 0.304 | 0.276 | 0.459 | 0.844 | 1.17 | 0.889 | 0.916 | 0.932 | 0.618 | 0.675 | 0.673 | 0.581
NCI-H2405 | 0.517 | 0.554 | 0.542 | 0.571 | 0.591 | 0.682 | 0.666 | 0.82 | 1.01 | 1.12 | 1.11 | 0.984 | 1.04 | 0.735 | 0.804 | 0.838 | 0.876
NCI-H3122 | 0.149 | 0.208 | 0.186 | 0.235 | 0.221 | 0.256 | 0.248 | 0.313 | 1.05 | 1.17 | 1.06 | 1.06 | 1.02 | 0.219 | 0.307 | 0.326 | 0.336
PC-3 [JPC-3] | 0.533 | 0.499 | 0.518 | 0.487 | 0.662 | 0.641 | 0.713 | 0.633 | 0.488 | 0.556 | 0.479 | 0.441 | 0.472 | 1.01 | 0.902 | 0.963 | 0.829
PC-14 | 0.57 | 0.478 | 0.462 | 0.406 | 0.733 | 0.789 | 0.666 | 0.417 | 0.287 | 0.38 | 0.3 | 0.256 | 0.269 | 0.882 | 0.912 | 0.907 | 0.761
RERF-LC-KJ | 1.02 | 1.21 | 1.25 | 0.902 | 0.869 | 0.836 | 0.805 | 0.715 | 0.787 | 0.883 | 0.884 | 0.833 | 0.848 | 0.784 | 0.754 | 0.819 | 0.65
SK-LU-1 | 0.4 | 0.377 | 0.377 | 0.366 | 0.476 | 0.52 | 0.475 | 0.396 | 0.977 | 1.1 | 0.685 | 1.05 | 0.682 | 0.789 | 0.897 | 0.809 | 0.682
SK-MES-1 | 0.369 | 0.308 | 0.339 | 0.397 | 0.548 | 0.537 | 0.656 | 0.734 | 0.435 | 0.51 | 0.441 | 0.457 | 0.463 | 0.912 | 0.96 | 1.04 | 0.969
